According to paper PMC4635571 (Journal of immunology (Baltimore, Md. : 1950), 2015):

Experiments:
polarized CD4+ T cells [1] = experiment: P-selectin; type: cell-based, mouse
ITK = conditions: versus e.g. BMS-509744 and BMS-488516; Fig. 1B
naïve CD4+ T cells = type: cell-based, mouse
CD-1 mice = experiment: Anti-CD3-induced cytokines in mouse plasma; type: in vivo; conditions: 20 mg/kg i.p., anti-CD3 1hr or 6hr later, plasma 2hr post-anti-CD3
[2] = system: Human peripheral blood mononuclear cells (PBMC); experiment: Cytokine production by human PBMC; type: cell-based
[3] = system: HCT116 colorectal carcinoma cell line; experiment: Inhibition of proliferation of HCT116 cells; type: cell-based; conditions: read-out: IC50 of inhibition of proliferation; HCT116, general cytotoxicity
phosphorylated-PLCγ1 = experiment: In vivo target engagement assay; design: species or system mouse; conditions: 40 mg/kg oral, 2hr or 6hr post-treatment, ex vivo anti-CD3/CD28 stimulation
polarized CD4+ T cells [4] = experiment: Transwell cell migration assay; type: cell-based, mouse; conditions: 3hr, cells cultured with 25 or 50nM PRN694
Rag2−/− hosts = experiment: CD4+ CD45RBhi T cell adoptive transfer model of colitis; type: in vivo

C=CC(=O)N1CCC[C@@H]1Cn1c(NC(=O)c2ccc(C(F)F)s2)nc2cc(CN[C@@H](C)C(C)(C)C)ccc21 [PRN694]
P-selectin binding of TH1 and TH17 cells (polarized CD4+ T cells [1]; differentiated 72hr with 25 or 50nM PRN694): reduced P-selectin binding | P-selectin binding of TH2 cells (polarized CD4+ T cells [1]; only visible in the higher dose of inhibitor (50nM)): only a modest reduction | fold more potent in inhibiting ITK than previously-described ITK inhibitors (ITK): 63- to 320 fold | inhibition of IFN-γ production by TH1 cells (naïve CD4+ T cells; 25nM PRN694, TH1-polarizing conditions, 72hr, PMA/Ionomycin restimulation 5hr): > 50% | expression levels of transcription factors (T-bet, GATA-3, RORγt) (naïve CD4+ T cells; TH1, TH2, TH17 polarization with inhibitor): decreased | IL-2 production by in vitro polarized CD4+ T cells (naïve CD4+ T cells; all three lineages of T helper cells, 72hr): inhibited | inhibition of IL-4 production by TH2 cells (naïve CD4+ T cells; any of the doses tested, TH2-polarizing conditions, 72hr): < 50% | increase in plasma IFN-γ, IL-6 and IL-2 induced by anti-CD3 (CD-1 mice): inhibited | increase in IFN-γ, IL-6 and IL-2 induced by anti-CD3/CD28 ([2]; 20nM PRN694, 18hr): strongly inhibited | increase in IFN-γ, IL-6 and IL-2 induced by anti-CD3/CD28 ([2]; 5.0μM PRN694, 18hr): completely blocked | ability to inhibit IL-2 production on thapsigargin stimulation ([2]; PBMC stimulated with thapsigargin 10 μM, 18hr): strongly impaired | IC50 [3]: 10 µM | phosphorylation of PLCγ1 (phosphorylated-PLCγ1): completely blocked | TH17 migration to CCL20 (polarized CD4+ T cells [4]; CCL20 100 ng/mL): reduced approximately two-fold | TH1 migration to CXCL11 (polarized CD4+ T cells [4]; CXCL11 100 ng/mL): inhibited | toxicity during long-term in vivo administration (Rag2−/− hosts; 7 week dosing time frame): no apparent toxicity | CD4+ T cell proportions in intestinal epithelium and LP versus vehicle (Rag2−/− hosts; 7 weeks post-transfer): significantly less | expression of integrin α4β7 and CCR6 on intestinal epithelial CD4+ T cells (Rag2−/− hosts; 7 weeks post-transfer): reduced | histological analysis of the colonic epithelium (Rag2−/− hosts; 7 weeks post-transfer, H&E): reduced inflammation | proportions of cells capable of producing IL-2 (Rag2−/− hosts; 7 weeks post-transfer, PMA/Ionomycin): reduced proportions | reduced colon length (Rag2−/− hosts; 7 weeks post-transfer, oral dosing): prevented | proportions of CD4+ T cells expressing Foxp3 (Rag2−/− hosts; all organs examined, 7 weeks post-transfer): significantly reduced | behavioral indications of toxicity (Rag2−/− hosts; long-term in vivo administration): no behavioral indications of drug-mediated toxicity | proportions of CD4+ T cells producing IFN-γ (Rag2−/− hosts; mesenteric LN, IEL and LP, 7 weeks post-transfer, PMA/Ionomycin): markedly reduced | weight change (disease progression) (Rag2−/− hosts; oral 40 mg/kg once a day or 20 mg/kg twice a day, 7 weeks): no weight loss
